Measured values as given in patent publication US6037351A, “Method of inhibiting hepatitis B virus” (priority 1996, dated 2000).

Legend:
HBs proteins = test: ELISA of HBs proteins in virion fraction of medium (sucrose gradient); format: cell-based, HBV; details: 40-46% sucrose fraction
Procedure: FIG. 3D: Histogram of the area under the averaged peaks of the densitometric tracing of the gel in FIG. 3B. […] Equal volumes of the indicated samples were tested for HBV envelope antigens using the enzyme-linked imminosorbent assay (ELISA) method. Samples of unfractionated medium (FIGS. 4A, 4B and 4C) or partially purified virus (FIGS. 4D, 4E and 4F) from 3-day cultures were tested for HBV SHBs ("S) (FIGS. 4A and 4D), LHBs: "PreS1" (FIGS. 4B and 4E) or MHBs "PreS2" (FIGS. 4C and 4F) epitopes. Cultures were maintained in the indicated concentrations of NBDNJ, expressed in millimolar units and shown along the X axis.
Detection of HBV proteins by the Enzyme Linked Immunoabsorbant assay (ELISA).
Monoclonal antibodies used herein are well-known and are described by Heerman et al., J. Virol. 52, 396-402 (1984), for antibody to PreS1 (MA 18/7); Heerman et al., Intervirology 28: 14-21 (1987), for antibody to PreS2 (Q 19/10), see also Gerlich and Bruss, Molecular Biology of Hepatitis B Virus, ed. […]
Bound antigen was detected by incubation with peroxidase conjugated goat anti-HBs antibody (Behring) followed by development in orthophenylenediamine (0.33 mg/ml PBS-peroxide solution). Optical densities were read in a Behring plate reader. Tests on purified virus and total medium were conducted over a series of sample dilutions to insure proper quantification. […]

α-glucosidase I = details: N-linked oligosaccharide processing enzyme; cited from earlier work
MHBs (PreS2) = test: Western blot of MHBs in sucrose gradient fractions; format: cell-based, HBV
Procedure: (§1) Polyethylene glycol (PEG) precipitates of culture medium (FIG. 5A) or partly purified virions, HBs filaments and spheres from untreated (FIG. 5B) and NBDNJ treated (FIG. 5C) cultures were resolved by SDS-PAGE (13.5% acrylamide), transferred to immobilin paper and incubated with PreS1 and PreS2 specific monoclonal antibody.
(§2) Samples were dissolved in loading buffer, resolved by electrophoresis through 13.5% SDS polyacrylamide gels (SDS-PAGE) and transferred to PVDF (Millipore) membranes and blocked with 5% powdered milk, as in Gultekin and Heerman, Analytical Biochem. 172, 320-329 (1989). After incubation with primary antibody overnight at room temperature in 1% bovine serum albumin (BSA) in TNE and second antibody (peroxidase conjugated goat anti-mouse IgG serum) for 1 hour in TNE at room temperature, membranes were developed in peroxide-diaminobenzidine (Sigma) PBS, as described in the manufacturer's instructions.
(§3) The ELISA results were confirmed by Western blot analysis of fractions from the sucrose gradient containing either intact virus, filaments or spheres (FIGS. 5B, from untreated cultures, and 5C, from NBDNJ treated cultures). […]
(§4) Fractions distal to the virion containing fractions (near the bottom of the gradient) were resolved in lane 1 to show specificity of the antibody. […] The images shown in FIGS. 5B and 5C) were quantified by densitometry.

hepatitis B virus (HBV) = test: Progeny HBV in medium of infected HepG2 cells (immunoprecipitation, PCR, densitometry); format: cell-based, HBV in human hepatoma HepG2 cells; details: NBDNJ 700 μg/ml (3.2 mM), HepG2 cells infected with protease processed HBV, five days after infection
Text: FIG. 3A and FIG. 3C: DNA from virions, immunoprecipitated with monoclonal antibody to MHBs, was amplified by polymerase chain reaction (PCR) and resolved by agarose gel electrophoresis.
These bands were imaged by densitometry and the areas under the peaks are shown in FIG. 3C in which the average of the two samples of each NBDNJ concentration was plotted.
Infection of HepG2 cells:
HBV was purified from human serum or from the medium of cultured cells by sedimentation to between 40 and 46% sucrose (w/w) following ultracentrifugation, [Seifer et al., Virol. 179, 300-311 (1990)]. Virions were dialyzed in 0.02 M Potassium Phosphate Buffer, pH 7.4, concentrated, treated with V8 protease (from Staphylococcus aureus, Sigma Chemical Co.) overnight at 37° C. centrifuged for 8 hours through a 20% sucrose/0.01M Tris, pH 7.4, 0.14 M NaCl, 0.005 M EDTA (TNE) cushion. The pellets were re-suspended in growth medium and then used to inoculate HepG2 cells.
Progeny virus in the medium of HepG2 cells infected with serum derived HBV was detected by precipitating medium with monoclonal antibody to the PreS2 epitopes. DNA from immunoprecipated virions was amplified by a polymerase chain reaction (PCR) using primers from nucleotides 2815 and 190 with respect to the viral genome (using the EcoRI site as nucleotide 1). […]

LHBs (PreS1) = test: Western blot of LHBs in sucrose gradient virion fraction; format: cell-based, HBV; details: Western blot densitometry, FIG. 5C vs 5B lane 2
Procedure: as §1, §2, §3, §4

Question: With `CCCCN1C[C@H](O)[C@@H](O)[C@H](O)[C@H]1CO` [NBDNJ, N-butyl-1,5-dideoxy-1,5-imino-D-glucitol] as the compound, how does the “HBs proteins in virion samples from medium” value (HBs proteins; NBDNJ 2.25 mM (approximately 500 μg/ml)) read?
Answer: virtually no detectable HBs proteins

Question: What about the “HBs proteins in virion samples from medium” value (HBs proteins; NBDNJ 4.5 mM (approximately 1000 μg/ml)) of the same compound?
Answer: virtually no detectable HBs proteins

Question: What about the “inhibition of α-glucosidase I (in words)” value (α-glucosidase I) of the same compound?
Answer: potent inhibitor

Question: What about the “decrease of MHBs in virion samples compared to untreated” value (MHBs (PreS2); Western blot densitometry, FIG. 5C lane 2 vs FIG. 5B lane 2) of the same compound?
Answer: 12 fold

Question: What about the “decrease in MHBs (PreS2 epitope) (in words)” value (MHBs (PreS2); medium of NBDNJ treated cultures, FIGS. 5B and 5C) of the same compound?
Answer: particularly severe

Question: And the “viral DNA in medium of infected cells vs untreated” value (hepatitis B virus (HBV))?
Answer: an order of magnitude less viral DNA

Question: What about the “decrease of LHBs in virion samples compared to untreated” value (LHBs (PreS1)) of the same compound?
Answer: approximately 4 fold
